Literature values as cited in patent US9434994B2, “Methods for prediction of clinical outcome to epidermal growth factor receptor inhibitors by non-small cell lung cancer patients” (The Regents of the University of Colorado, a body corporate, priority 2004, dated 2016).

Assays:
[1] = tested on: chemotherapy resistant NSCLC patients; settings: single agent; cited from earlier work
advanced NSCLC patients = settings: cited from earlier work
[2] = unselected gefitinib treated NSCLC patients

For `COc1cc2ncnc(Nc3ccc(F)c(Cl)c3)c2cc1OCCCN1CCOCC1` [gefitinib], the response rates [1] is given as “about 10%”, the stable disease rates (advanced NSCLC patients; NSCLC patients treated with gefitinib) is given as “about 30%” and the “disease stabilization and symptomatic improvement” value (advanced NSCLC patients; advanced disease progressing after standard therapies) is given as “about 40%”. The Objective Response (advanced NSCLC patients; [2]) was “up to 18%” and the symptomatic improvement (advanced NSCLC patients; [2]) was 40%.
